“And” between values parts separate entries of the source, which are not always exact repeats. Equal values may be shown once. Toxic doses and inconclusive results are not listed. The calls were made as follows: active = survival T/C of 150% or more; inactive = T/C below 125% in these data.
Test system: P388 leukemia ip, CD2F1 mice, survival T/C
Experiment: NCI In Vivo Anticancer Drug Screen. Data for tumor model P388 Leukemia (intraperitoneal) in CD2F1 (CDF1) mice
Settings: endpoint: median survival time, higher = longer survival
How it was run: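 Mice carrying the transplanted tumor received test compound or vehicle. Survival was recorded in each group, and the value is the treated-group measurement divided by that of the vehicle-treated control group.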

[1] = dose: 50.0 mg/kg/injection, schedule: Q04DX003 (ip), vehicle: saline with Tween-80
[2] = dose: 12.5 mg/kg/injection, schedule: Q01DX009 (ip), vehicle: water
[3] = dose: 25.0 mg/kg/injection, schedule: Q01DX009 (ip), vehicle: water
[4] = dose: 50.0 mg/kg/injection, schedule: Q01DX009 (ip), vehicle: water
[5] = dose: 100.0 mg/kg/injection, schedule: Q01DX009 (ip), vehicle: water
[6] = dose: 12.5 mg/kg/injection, schedule: Q01DX005 (ip), vehicle: saline with Tween-80
[7] = dose: 50.0 mg/kg/injection, schedule: Q01DX005 (ip), vehicle: saline with Tween-80
[8] = dose: 100.0 mg/kg/injection, schedule: Q01DX005 (ip), vehicle: saline with Tween-80
[9] = dose: 200.0 mg/kg/injection, schedule: Q01DX005 (ip), vehicle: saline with Tween-80
[10] = dose: 60.0 mg/kg/injection, schedule: Q01DX005 (ip), vehicle: saline with Tween-80
[11] = dose: 240.0 mg/kg/injection, schedule: Q01DX005 (ip), vehicle: saline with Tween-80
[12] = dose: 100.0 mg/kg/injection, schedule: Q04DX003 (ip), vehicle: saline with Tween-80
[13] = dose: 200.0 mg/kg/injection, schedule: Q04DX003 (ip), vehicle: saline with Tween-80

Measured: T/C

CC1(C)N=C(N)N=C(N)N1c1cccc(CC(=O)Nc2ccccc2)c1
inactive: dose: 12.5 mg/kg/injection, schedule: Q01DX009 (ip), vehicle: saline sonified 95 % of control | dose: 12.5 mg/kg/injection, schedule: Q04DX003 (ip), vehicle: saline with Tween-80 109 % of control | dose: 25.0 mg/kg/injection, schedule: Q01DX009 (ip), vehicle: saline sonified 95 % of control | dose: 25.0 mg/kg/injection, schedule: Q04DX003 (ip), vehicle: saline with Tween-80 104 % of control | dose: 50.0 mg/kg/injection, schedule: Q01DX009 (ip), vehicle: saline sonified 90 % of control | [1] 109 % of control

NCc1ccc(Cl)c(Cl)c1
inactive: dose: 6.25 mg/kg/injection, schedule: Q01DX009 (ip), vehicle: saline 110 % of control and 116 % of control | dose: 12.5 mg/kg/injection, schedule: Q01DX009 (ip), vehicle: saline 104 % of control and 107 % of control | dose: 25.0 mg/kg/injection, schedule: Q01DX009 (ip), vehicle: saline 100 % of control and 103 % of control | dose: 50.0 mg/kg/injection, schedule: Q01DX009 (ip), vehicle: saline 101 % of control and 104 % of control | dose: 100.0 mg/kg/injection, schedule: Q01DX009 (ip), vehicle: saline 103 % of control and 109 % of control

NNS(=O)(=O)CCC(N)C(=O)O (stereo not drawn)
inactive: [2] 100 % of control | [3] 107 % of control | [4] 107 % of control | [5] 98 % of control

CC(=O)CC(C)(C)C1CCCCC1
inactive: [2] 116 % of control | [3] 108 % of control | [4] 103 % of control | [5] 107 % of control | dose: 200.0 mg/kg/injection, schedule: Q01DX009 (ip), vehicle: water 104 % of control

NC(=S)N/N=C/C1=C(Cl)c2ccccc2C1
inactive: dose: 6.25 mg/kg/injection, schedule: Q01DX005 (ip), vehicle: saline with Tween-80 109 % of control | [6] 119 % of control

CC1C(=O)OC2C1CCC1(C)C=CC(=O)C3(C)OC213 (stereo not drawn)
inactive: dose: 60.0 mg/kg/injection, schedule: Q01DX005 (ip), vehicle: Klucel (hydroxypropylcellulose) (HPC) 100 % of control | dose: 120.0 mg/kg/injection, schedule: Q01DX005 (ip), vehicle: Klucel (hydroxypropylcellulose) (HPC) 104 % of control | dose: 240.0 mg/kg/injection, schedule: Q01DX005 (ip), vehicle: Klucel (hydroxypropylcellulose) (HPC) 105 % of control

CSc1ccc(/C=N/N=c2ccn(-c3ccc(Cl)cc3)cc2)cc1
inactive: dose: 25.0 mg/kg/injection, schedule: Q01DX001 (ip), vehicle: Klucel (hydroxypropylcellulose) (HPC) 100 % of control | dose: 50.0 mg/kg/injection, schedule: Q01DX001 (ip), vehicle: Klucel (hydroxypropylcellulose) (HPC) 102 % of control | dose: 100.0 mg/kg/injection, schedule: Q01DX001 (ip), vehicle: Klucel (hydroxypropylcellulose) (HPC) 100 % of control and 91 % of control

OCC1OC(n2ccn(C3OC(CO)C(O)C3O)c2=S)C(O)C1O (stereo not drawn)
inactive: dose: 25.0 mg/kg/injection, schedule: Q04DX003 (ip), vehicle: water 103 % of control | dose: 50.0 mg/kg/injection, schedule: Q04DX003 (ip), vehicle: water 111 % of control | dose: 100.0 mg/kg/injection, schedule: Q04DX003 (ip), vehicle: water 111 % of control | dose: 200.0 mg/kg/injection, schedule: Q04DX003 (ip), vehicle: water 112 % of control | dose: 400.0 mg/kg/injection, schedule: Q04DX003 (ip), vehicle: water 111 % of control

BrC1=CC(Br)=C2N=C(C(Br)(Br)Br)N=C3N=C(C(Br)(Br)Br)N=C1N32
inactive: dose: 15.0 mg/kg/injection, schedule: Q01DX005 (ip), vehicle: Klucel + Tween-80 106 % of control | dose: 30.0 mg/kg/injection, schedule: Q01DX005 (ip), vehicle: Klucel + Tween-80 109 % of control | dose: 60.0 mg/kg/injection, schedule: Q01DX005 (ip), vehicle: Klucel + Tween-80 103 % of control and 110 % of control

CCCCCCCCCCCCCCCC(=O)NC(CCCCN)C(=O)NC(CCCCN)C(=O)OCC (stereo not drawn)
inactive: dose: 12.5 mg/kg/injection, schedule: Q01DX009 (ip), vehicle: saline with Tween-80 101 % of control | dose: 25.0 mg/kg/injection, schedule: Q01DX009 (ip), vehicle: saline with Tween-80 106 % of control

O=C(N/N=C\c1cccc2ccccc12)C(=O)N/N=C/c1cccc2ccccc12
inactive: [6] 93 % of control | dose: 25.0 mg/kg/injection, schedule: Q01DX005 (ip), vehicle: saline with Tween-80 91 % of control | [7] 94 % of control | [8] 87 % of control | [9] 91 % of control

CCOC(=O)c1c(O)cc(C)[nH]c1=O
inactive: dose: 50.0 mg/kg/injection, schedule: Q01DX009 (ip), vehicle: saline with Tween-80 103 % of control and 96 % of control | dose: 100.0 mg/kg/injection, schedule: Q01DX009 (ip), vehicle: saline with Tween-80 100 % of control and 94 % of control and 98 % of control | dose: 200.0 mg/kg/injection, schedule: Q01DX009 (ip), vehicle: saline with Tween-80 103 % of control and 106 % of control and 93 % of control | dose: 400.0 mg/kg/injection, schedule: Q01DX009 (ip), vehicle: saline with Tween-80 104 % of control and 106 % of control and 122 % of control

CN(C)C(n1cc2c(c1)-c1ccc(Cl)cc1C(c1ccccc1F)=NC2)n1cc2c(c1)-c1ccc(Cl)cc1C(c1ccccc1F)=NC2
inactive: [10] 93 % of control | dose: 120.0 mg/kg/injection, schedule: Q01DX005 (ip), vehicle: saline with Tween-80 92 % of control | [11] 91 % of control

CCCCCCCCCCCCCCC/C([O-])=N/[N+](C)(C)CC(C)O (stereo not drawn)
inactive: dose: 50.0 mg/kg/injection, schedule: Q04DX003 (ip), vehicle: Klucel (hydroxypropylcellulose) (HPC) 99 % of control | dose: 100.0 mg/kg/injection, schedule: Q04DX003 (ip), vehicle: Klucel (hydroxypropylcellulose) (HPC) 99 % of control | dose: 200.0 mg/kg/injection, schedule: Q04DX003 (ip), vehicle: Klucel (hydroxypropylcellulose) (HPC) 99 % of control

Cc1ccc(NC(=O)C(Cl)(Cl)Cl)cc1[N+](=O)[O-]
inactive: [12] 104 % of control | [13] 100 % of control | dose: 400.0 mg/kg/injection, schedule: Q04DX003 (ip), vehicle: saline with Tween-80 100 % of control

COc1ccc(C(C#N)N2CCCC2)cc1 (stereo not drawn)
inactive: dose: 6.25 mg/kg/injection, schedule: Q04DX003 (ip), vehicle: other 100 % of control | dose: 12.5 mg/kg/injection, schedule: Q04DX003 (ip), vehicle: other 100 % of control

COc1cc[n+](CC(=O)c2c[nH]c3ccccc23)cc1
inactive: dose: 50.0 mg/kg/injection, schedule: Q01DX009 (ip), vehicle: Klucel (hydroxypropylcellulose) (HPC) 103 % of control | dose: 100.0 mg/kg/injection, schedule: Q01DX009 (ip), vehicle: Klucel (hydroxypropylcellulose) (HPC) 109 % of control

COc1ccc(NC(=O)Nc2ccc(NC(C)=O)cc2)c(OC)c1
inactive: dose: 15.0 mg/kg/injection, schedule: Q01DX005 (ip), vehicle: saline with Tween-80 93 % of control | dose: 30.0 mg/kg/injection, schedule: Q01DX005 (ip), vehicle: saline with Tween-80 92 % of control | [10] 86 % of control | [11] 88 % of control

CC(C)N(C(=S)/N=C1/SCS(=O)(=O)N1Cc1ccccc1)C(C)C
inactive: [1] 97 % of control | [12] 95 % of control | [13] 98 % of control

CC1NC(=O)N(C(C)(C)C)C1=O (stereo not drawn)
inactive: [7] 111 % of control | dose: 50.0 mg/kg/injection, schedule: Q01DX005 (ip), vehicle: saline 101 % of control | [8] 111 % of control | dose: 100.0 mg/kg/injection, schedule: Q01DX005 (ip), vehicle: saline 100 % of control | [9] 120 % of control | dose: 200.0 mg/kg/injection, schedule: Q01DX005 (ip), vehicle: saline 102 % of control and 107 % of control
